{
  "source": "patent US8673979B2",
  "about": "“Pharmaceutical compositions for headache, migraine, nausea and emesis” (Meditor Pharmaceuticals Ltd., priority 2000, dated 2014)",
  "key": {"[1]": {"system": "acute migraine attack (headache)", "assay": "Dose escalating exploratory study of Difetur tablets for acute migraine attack: headache reduction", "assay_type": "in vivo, human", "conditions": "for Percentage of Patients Benefited by Treatment: headache grade 3-4 reduced to 1-2; for Time elapsed to Effect: time after ingestion to headache grade 1-2", "experimental": "Dose escalating exploratory study on the safety and efficacy of Difetur tablets for the treatment of acute migraine attack.\n(§1) The purpose of following exploratory protocol is to evaluate the safety and potential efficacy of Difetur (S-ethylisothiouronium diethylphosphate) tablets, in escalating doses starting at 10 mg and up to 50 mg, in the treatment of a single acute migraine attack. The study was designed as an open study in a selected population of subjects classified according to IHS criteria as suffering from migraine headaches of moderate or severe intensity, without aura. The study was conducted according to established international criteria for evaluating safety and efficacy for migraine treatment.\n(§2) The study was performed as a 5 arm (groups) study. Only female patients classified as suffering from migraine without aura, according to IHS criteria are enrolled in the study. Each group consists of ten migraine patients who are treated during an acute migraine attack with Difetur tablets in a hospital setting. The initial dose of Difetur is 10 mg (1 tablet), consequently increasing to 20 mg, 30 mg, 40 mg, and 50 mg. The total number of patients to be enrolled is 50. The patients are hospitalized and followed for at least 4 hours to assess the safety, efficacy and possible side effects of Difetur.\nIn the first group of 10 patients each receive the initial dose of 10 mg of the study medication in a single tablet form. The dose of 50 mg is given as two tablets of 25 mg each. The tablets are individually packed in blister package, and have a label identifying the study medication as an investigational drug. Each dose in an escalating manner is given to 10 patients. The medication is swallowed with a glass of water under the supervision of an attending physician.\nHeadache severity is graded verbally in a 4-points scale: severe (grade 4), moderate (grade 3), mild (grade 2), or no pain (grade 1). Success is considered as a reduction of the headache severity from a severe or moderate headache (grade 3-4) to mild or no pain (grade 1-2)."}, "[2]": {"system": "emesis during migraine attack", "assay": "Difetur tablets: emesis/nausea treatment during migraine attack", "assay_type": "in vivo, human", "experimental": "as §1, §2\n4.2 Secondary Efficacy Targets are the Reduction of Nausea, Vomiting and Light And Sound Sensitivity.\nThese are assigned for their presence, absence or disappearance as documented by the patient."}, "[3]": {"system": "acute migraine attack (headache)", "assay": "Clinical trial of intravenous Difetur 10% solution in acute migraine attack", "assay_type": "in vivo, human", "conditions": "for Percentage of Patients Benefited by Treatment / Mean time elapsed to Effect: 0.6 mg/kg IV drip; for Mean time elapsed to Effect: to grade 1-0", "experimental": "as §1, with “protocol was” for “protocol is”, “Difetur 10% solution for injection,” for “Difetur (S-ethylisothiouronium diethylphosphate) tablets,”, “in dose 0.6 mg/kg,” for “in escalating doses starting at 10 mg and up to 50 mg,”, “in” for “in the”\nDifetur was presented as 10% (100 mg/mL) solution in 1 mL ampoules. It was dissolved in 100 mL of saline solution in intravenous device before treatment. The dose of Difetur was 0.6 mg/kg, given by intravenous drip during 10 min.\nHeadache severity was graded verbally on a 5-point scale: very severe (grade 4), severe (grade 3), moderate (grade 2), mild (grade 1), no pain (grade 0). Success was considered as reduction of the headache severity from very severe, severe or moderate (grade 4-2) to mild or no pain (grade 1-0)."}, "migraine attack": {"system": "migraine attack", "assay": "Case reports: oral tablets during migraine attacks", "assay_type": "in vivo, human", "conditions": "for Side effects of past medical treatment: in vivo", "experimental": "Previous medical history: The subject is a smoking person first diagnosed as a classical migraine sufferer. Except for this they are completely healthy. Until two years ago the frequency of the migraine attacks was seven episodes per month. During the last two years they were treated with different kinds of recognized medications, with little or no success. Due to lack of response to the medical treatment during the migraine attacks, they tried alternative medicine treatments.\nFirst attack: The subject suffered an acute migraine attack that lasted 72 hours. […] On the next day the subject received a single dose of 50 mg S-ethylisothiouronium diethylphosphate (2 tablets of 25 mg each). […] Between 10 to 15 minutes following administration the pain abruptly disappeared, as did all other symptoms, which appeared during the migraine attack.\nSecond attack: (three weeks later) The second migraine attack started during the night. On the next day the subject received once again 2 tablets of S-ethylisothiouronium diethylphosphate (50 mg). This time the intake of the tablets was during the peak of the migraine attack, after having a meal. Within 20 minutes the headache was relieved, the subject was able to focus their eyesight, and the photophobia disappeared. There was a weak headache but its intensity was reduced. Three hours later the subject took two more tablets of S-ethylisothiouronium diethylphosphate (50 mg). Within 15 minutes the migraine pain disappeared.\nThird attack: (two and a half weeks after the second attack) the migraine attack started on their way to work. An hour after onset within the peak of the migraine attack, the subject received 2 tablets of S-ethylisothiouronium diethylphosphate (each of 25 mg). Drug was taken on empty stomach. Within 11 minutes the migraine symptoms disappeared.\nPrevious Medical History: The subject is a non-smoking person suffering from migraine attacks during the last two years. The frequency of the migraine attacks is once a month before the menstruation period. The pain appears in the temples, the sinuses and spreads down to the lower jaw. The duration of the photophobia was about 48 hours. So far the subject has not applied to receive specific medical treatment and used to take conventional analgesic drugs.\nFirst attack: The onset of an acute migraine attack was in the morning and the symptoms grew stronger during the day. Just before noon time the subject received one tablet of S-ethylisothiouronium diethylphosphate (25 mg). […] Two hours later the subject received 2 more tablets of S-ethylisothiouronium diethylphosphate (each of 25 mg). Ten minutes later, the migraine pain disappeared.\nSecond attack: (about four weeks after the first attack) The migraine attack started as a consequence of very hot weather conditions. The intensity of this attack was greater than the usual migraine attacks. In the morning, the subject received 2 tablets of S-ethylisothiouronium diethylphosphate (50 mg) that were taken on an empty stomach. Within 20 minutes of S-ethylisothiouronium diethylphosphate intake there was a significant relief in migraine pain. Fifteen minutes later the pain disappeared. Later that day, during the afternoon, the subject suffered a weak pain. This time the subject self administered analgesic drugs and the pain disappeared."}, "[4]": {"conditions": "therapeutic doses; cited from earlier work"}, "[5]": {"conditions": "Case 2, second attack, 50 mg oral, empty stomach"}},
  "data": [
    {"compound": "S-ethylisothiouronium diethylphosphate [Difetur]", "values": [
      {"measurement": "Percentage of Patients Benefited by Treatment", "setting": "[1]; 10 mg oral tablet", "result": 0, "unit": "%"},
      {"measurement": "Percentage of Patients Benefited by Treatment", "setting": "[1]; 20 mg oral", "result": 70, "unit": "%"},
      {"measurement": "Time elapsed to Effect", "setting": "[1]; 20 mg oral", "result": 43, "unit": "min"},
      {"measurement": "Percentage of Patients Benefited by Treatment", "setting": "[1]; 30 mg oral", "result": 70, "unit": "%"},
      {"measurement": "Time elapsed to Effect", "setting": "[1]; 30 mg oral", "result": 58, "unit": "min"},
      {"measurement": "Side effects", "setting": "[1]; clinical trials, human subjects", "result": "no side effects"},
      {"measurement": "Time to dramatic improvement", "setting": "[1]; in some cases", "result": "≤ 15", "unit": "min"},
      {"measurement": "Time to reduction of migraine symptoms, on average", "setting": "[1]; oral, at peak of migraine attack", "result": "around 45 minutes"},
      {"measurement": "Time to relief", "setting": "[1]; treatment initiated at peak of migraine attack", "result": "≤ 60", "unit": "min"},
      {"measurement": "Percentage of Patients Affected by Treatment (positive anti-emetic response)", "setting": "[2]; 10 mg oral", "result": 70, "unit": "%"},
      {"measurement": "Time elapsed until Effect (termination of emesis)", "setting": "[2]; 10 mg oral", "result": 28, "unit": "min"},
      {"measurement": "Percentage of Patients Affected by Treatment (positive anti-emetic response)", "setting": "[2]; 20 mg oral", "result": 100, "unit": "%"},
      {"measurement": "Time elapsed until Effect (termination of emesis)", "setting": "[2]; 20 mg oral", "result": 25, "unit": "min"},
      {"measurement": "Percentage of Patients Affected by Treatment (positive anti-emetic response)", "setting": "[2]; 30 mg oral", "result": 100, "unit": "%"},
      {"measurement": "Time elapsed until Effect (termination of emesis)", "setting": "[2]; 30 mg oral", "result": 29, "unit": "min"},
      {"measurement": "Effect of low doses on nausea", "setting": "[2]; low doses ineffective or less effective on headache", "result": "effective at reducing or abolishing the symptoms of nausea"},
      {"measurement": "Percentage of Patients Benefited by Treatment", "setting": "[3]; headache grade 2", "result": 87, "unit": "%"},
      {"measurement": "Mean time elapsed to Effect", "setting": "[3]; headache grade 2", "result": 13.7, "unit": "min"},
      {"measurement": "Percentage of Patients Benefited by Treatment", "setting": "[3]; headache grade 3", "result": 100, "unit": "%"},
      {"measurement": "Mean time elapsed to Effect", "setting": "[3]; headache grade 3", "result": 25.5, "unit": "min"},
      {"measurement": "Percentage of Patients Benefited by Treatment", "setting": "[3]; headache grade 4", "result": 100, "unit": "%"},
      {"measurement": "Mean time elapsed to Effect", "setting": "[3]; headache grade 4", "result": 50, "unit": "min"},
      {"measurement": "Headache relief, overall", "setting": "[3]; 0.6 mg/kg IV, 13 patients, all except one", "result": "significant headache relief"},
      {"measurement": "Side effects", "setting": "migraine attack; Case 1, 50 mg oral", "result": "No side effects"},
      {"measurement": "Time to headache relief", "setting": "migraine attack; Case 1, second attack, 50 mg oral, after a meal", "result": "≤ 20", "unit": "min"},
      {"measurement": "Time to disappearance of migraine pain", "setting": "migraine attack; Case 1, second attack, further 50 mg three hours later", "result": "≤ 15", "unit": "min"},
      {"measurement": "Time to disappearance of migraine symptoms", "setting": "migraine attack; Case 1, third attack, 50 mg oral, empty stomach", "result": "≤ 11", "unit": "min"},
      {"measurement": "Frequency of migraine attacks after treatment", "setting": "migraine attack; Case 1, previously seven episodes per month", "result": "about three"},
      {"measurement": "Side effects", "setting": "migraine attack; Case 2, 25 or 50 mg oral", "result": "No side effects"},
      {"measurement": "Time to disappearance of migraine pain", "setting": "migraine attack; Case 2, first attack, 2 more 25 mg tablets two hours later", "result": "Ten"},
      {"measurement": "Change in migraine pain", "setting": "migraine attack; Case 2, first attack, one 25 mg tablet", "result": "No substantial change"},
      {"measurement": "Time from significant relief to disappearance of pain", "setting": "migraine attack; [5]", "result": "Fifteen"},
      {"measurement": "Time to significant relief in migraine pain", "setting": "migraine attack; [5]", "result": "≤ 20", "unit": "min"},
      {"measurement": "Time to elimination of migraine symptoms", "setting": "migraine attack; both case reports, at peak of attack", "result": "less than 20 minutes"},
      {"measurement": "Headache recurrence (rebound/relapse)", "setting": "migraine attack; case reports", "result": "not observed"}
    ]},
    {"compound": "CNS(=O)(=O)Cc1ccc2[nH]cc(CCN(C)C)c2c1", "note": "[Imitrex, Sumatriptan succinate, reference compound]", "values": [
      {"measurement": "Side effects of past medical treatment", "setting": "migraine attack", "result": "various strong side effects"}
    ]},
    {"compound": "CN(C)CCc1c[nH]c2ccc(C[C@H]3COC(=O)N3)cc12", "note": "[Zomig, reference compound]", "values": [
      {"measurement": "Side effects of past medical treatment", "setting": "migraine attack", "result": "various strong side effects"}
    ]},
    {"compound": "CN1C[C@H](C(=O)N[C@]2(C)O[C@@]3(O)[C@@H]4CCCN4C(=O)[C@H](Cc4ccccc4)N3C2=O)C=C2c3cccc4[nH]cc(c34)C[C@H]21", "note": "[ergotamine]", "values": [
      {"measurement": "Patients with nausea and vomiting", "setting": "[4]", "result": "up to 10%"}
    ]}
  ]
}
